Assay [1] has as its target T1, IRAK3 (Homo sapiens, UniProt Q9Y616).
T1 sequence (Q9Y616 1-596): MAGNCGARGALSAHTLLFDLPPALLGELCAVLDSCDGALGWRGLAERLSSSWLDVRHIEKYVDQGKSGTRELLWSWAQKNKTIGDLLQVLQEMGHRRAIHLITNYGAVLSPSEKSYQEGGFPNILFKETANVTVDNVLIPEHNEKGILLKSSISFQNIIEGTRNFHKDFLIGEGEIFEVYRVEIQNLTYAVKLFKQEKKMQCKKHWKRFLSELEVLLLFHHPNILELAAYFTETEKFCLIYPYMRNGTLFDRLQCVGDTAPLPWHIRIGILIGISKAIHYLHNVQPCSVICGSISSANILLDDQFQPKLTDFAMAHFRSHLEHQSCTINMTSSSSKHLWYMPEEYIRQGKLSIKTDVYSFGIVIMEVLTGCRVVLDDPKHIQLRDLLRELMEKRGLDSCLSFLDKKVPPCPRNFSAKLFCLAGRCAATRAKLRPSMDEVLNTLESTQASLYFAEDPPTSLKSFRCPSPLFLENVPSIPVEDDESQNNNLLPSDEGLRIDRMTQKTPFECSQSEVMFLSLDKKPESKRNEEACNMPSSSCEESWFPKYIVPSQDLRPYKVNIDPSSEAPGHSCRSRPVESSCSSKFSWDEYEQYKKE
Nature of the assay: IRAK endogenous HTRF degradation assay (Total-IRAK3 HTRF kit). In kind it is cell-based. The arrangement: IRAK Endogenous HTRF Degradation Assay; endogenous in cells. The conditions noted are these: endogenous IRAK3, overnight incubation; % Dmax = 100 − Ymin. An outline of the steps: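 About 50k cells per well treated overnight with 3-fold serial dilutions of compound. Total IRAK3 measured in lysates by HTRF (665/615 nm ratio × 10,000), normalised to DMSO as 100%. EC50 from a four-parameter logistic fit; Dmax = 100 − Ymin, where Ymin is the lowest % IRAK3 remaining.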

Assay [2] concerns the target T1, IRAK3. Kind of assay: IRAK3 biochemical binding assay (LanthaScreen Eu Kinase Binding, TR-FRET). The conditions noted are these: 10 nM tracer, 10 nM IRAK3, 1 hour at room temperature. The method, then:
Example B3. IRAK3 Biochemical Binding Assay
The LanthaScreen® Eu Kinase Binding assay was performed as described by the vendor (ThermoFisher Scientific Waltham, MA). Briefly, 100× solutions of compound were prepared in DMSO via serial dilution of the 10 mM stock solution in a 384-well reagent plate using 3-fold intervals to achieve final concentrations. 1 μL of the compound dilution series were added to the corresponding wells of a 384-well reagent plate containing 32.3 μL of 1× buffer (50 mM HEPES pH 7.4, […], 1 mM EGTA, 0.01% Brij-35). 5 μL of the buffer diluted compounds were transferred to the corresponding wells of a 384-well assay plate. 5 μL of 3× tracer was transferred to each well of the assay plate for a final tracer concentration of 10 nM. Finally, 5 μL of the 3× Eu-Anti-GST and IRAK3 mix was transferred to each well for a final concentration of 2 nM and 10 nM, respectively. Reactions were allowed to incubate for 1 hour at room temperature. TR-FRET signal of the interaction ([…]/λem 665/λem 615) was read at room temperature with a delay time of 100 μs and an integration time of 200 μs using an Envision plate reader. Background corrected emission signal ratios at each compound concentration were used to calculate percentage of inhibition (% o Inhibition). Plots of % Inhibition versus inhibitor concentrations were fit according to a dose-response equation (Eq. 1) to generate IC50 and Hill slope values using Dotmatics software (Dotmatics, Bishops Storford, Hertfordshire, England).
Using these assays, IC50, Dmax, EC50, and DC50 values of the following compounds were determined. Dmax is defined as the maximum percent degradation achieved and DC50 is the concentration at which 50% degradation is achieved.

In turn, `C[C@@H](Oc1cc(-c2cnn(C3CCN(CCNC(=O)COc4cccc5c4C(=O)N(C4CCC(=O)NC4=O)C5=O)CC3)c2)cnc1N)c1c(Cl)ccc(F)c1Cl` (stereo partly drawn) [Compound 8, N-(2-(4-(4-(6-amino-5-((R)-1-(2,6-dichloro-3-fluorophenyl)ethoxy)pyridin-3-yl)-1H-pyrazol-1-yl)piperidin-1-yl)ethyl)-2-((2-(2,6-dioxopiperidin-3-yl)-1,3-dioxoisoindolin-4-yl)oxy)acetamide] showed a Dmax in assay [1] of 37%. In assay [2], this molecule came in with an IC50 of 25 nM.
`C[C@@H](Oc1cc(-c2cnn(C3CCN(C4CCC5(CC4)CCN(C(=O)c4ccc6c(c4)C(=O)N(C4CCC(=O)NC4=O)C6=O)CC5)CC3)c2)cnc1N)c1c(Cl)ccc(F)c1Cl` (stereo partly drawn) [Compound 18, 5-(9-(4-(4-(6-amino-5-((R)-1-(2,6-dichloro-3-fluorophenyl)ethoxy)pyridin-3-yl)-1H-pyrazol-1-yl)piperidin-1-yl)-3-azaspiro[5.5]undecane-3-carbonyl)-2-(2,6-dioxopiperidin-3-yl)isoindoline-1,3-dione] registered a Dmax in assay [1] of 73%. The IC50 in assay [2] came out at 12 nM.
On the same counts, the results for `Cc1ncsc1-c1ccc(CNC(=O)[C@@H]2C[C@@H](O)CN2C(=O)[C@@H](NC(=O)COCCOCCN2CCC(n3cc(-c4cnc(N)c(O[C@H](C)c5c(Cl)ccc(F)c5Cl)c4)cn3)CC2)C(C)(C)C)cc1` [Compound 2, (2S,4R)-1-((S)-2-(2-(2-(2-(4-(4-(6-amino-5-((R)-1-(2,6-dichloro-3-fluorophenyl)ethoxy)pyridin-3-yl)-1H-pyrazol-1-yl)piperidin-1-yl)ethoxy)ethoxy)acetamido)-3,3-dimethylbutanoyl)-4-hydroxy-N-(4-(4-methylthiazol-5-yl)benzyl)pyrrolidine-2-carboxamide] are 35% and 139 nM.
On the same counts, the results for `C[C@@H](Oc1cc(-c2cnn(C3CCN(CCOCCNC(=O)COc4ccc5c(c4)C(=O)N(C4CCC(=O)NC4=O)C5=O)CC3)c2)cnc1N)c1c(Cl)ccc(F)c1Cl` (stereo partly drawn) [Compound 14, N-(2-(2-(4-(4-(6-amino-5-((R)-1-(2,6-dichloro-3-fluorophenyl)ethoxy)pyridin-3-yl)-1H-pyrazol-1-yl)piperidin-1-yl)ethoxy)ethyl)-2-((2-(2,6-dioxopiperidin-3-yl)-1,3-dioxoisoindolin-5-yl)oxy)acetamide] are 3% and 70 nM.

Source of the values: patent US20260234124A1, “Substituted Pyrazolyl-Pyridinyl Compounds as Ligand Directed Degraders of IRAK3” (Celgene Corporation, priority 2022, published 2026).
